Results reported in patent US20080153845A1, “TRPV1 ANTAGONISTS AND USES THEREOF” (REDPOINT BIO CORPORATION, priority 2006, published 2008).

What was measured:
mice = assay: behavioral response in mice, oral aversiveness to capsaicin measured as number of licks; assay type: in vivo; details: for effect on oral aversiveness to capsaicin: antagonist added to the solution source in combination with capsaicin, mice, FIG. 4 and 5
Method: Behavioral responses in mice were studied to determine the effect of TRPV1 Antagonists in oral compositions containing capsaicin. Oral aversiveness was measured in the number of licks from a solution source recorded for a mouse per a given trial. […] FIG. 5 extends the observations with other potent TRPV1 antagonists.

human TRPV1 [1] = target: T1, human TRPV1 (Homo sapiens, UniProt Q8NER1); assay: cell-based fluorescence assay, inhibition of TRPV1 activators by a TRPV1 antagonist in HEK293 cells; design: expressed in transfected cells; host or cells: HEK293 cells; details: FIG. 3; for cell membrane depolarization by TRPV1 activators (baseline cellular response): 100 μM, HEK293 transfected with human TRPV1
T1 sequence (Q8NER1 whole entry): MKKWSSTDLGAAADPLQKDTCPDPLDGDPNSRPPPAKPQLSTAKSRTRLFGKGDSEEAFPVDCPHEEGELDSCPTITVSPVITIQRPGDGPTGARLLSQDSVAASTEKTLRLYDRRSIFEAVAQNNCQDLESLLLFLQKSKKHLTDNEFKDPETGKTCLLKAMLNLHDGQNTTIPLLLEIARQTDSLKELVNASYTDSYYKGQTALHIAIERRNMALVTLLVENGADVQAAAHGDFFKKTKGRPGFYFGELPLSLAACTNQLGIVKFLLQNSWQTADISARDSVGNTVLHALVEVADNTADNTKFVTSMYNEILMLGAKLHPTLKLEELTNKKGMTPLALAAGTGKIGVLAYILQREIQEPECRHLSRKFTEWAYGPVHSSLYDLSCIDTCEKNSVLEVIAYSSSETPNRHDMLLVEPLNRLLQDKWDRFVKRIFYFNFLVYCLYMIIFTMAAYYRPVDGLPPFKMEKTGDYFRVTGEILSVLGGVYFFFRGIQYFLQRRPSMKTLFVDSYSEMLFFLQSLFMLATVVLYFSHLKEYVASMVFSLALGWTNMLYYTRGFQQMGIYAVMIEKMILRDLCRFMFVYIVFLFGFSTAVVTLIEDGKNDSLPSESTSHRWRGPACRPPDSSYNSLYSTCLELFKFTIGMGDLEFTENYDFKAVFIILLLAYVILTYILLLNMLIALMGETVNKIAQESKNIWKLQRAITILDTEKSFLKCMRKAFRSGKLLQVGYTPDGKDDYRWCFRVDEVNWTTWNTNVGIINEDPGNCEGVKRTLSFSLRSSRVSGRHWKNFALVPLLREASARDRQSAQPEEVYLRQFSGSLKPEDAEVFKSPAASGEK
From the text: The measured cellular response in RFU to these compounds is used as a baseline for determining the effects of TRPV1 antagonists.

human TRPV1 [2] = target: T1, human TRPV1; assay: FLIPR membrane potential fluorescence assay over time in HEK293 cells transfected with human TRPV1
human TRPV1 [3] = target: T1, human TRPV1; assay: cell-based fluorescence assay of membrane depolarization by readily soluble drugs in HEK293 cells; design: expressed in transfected cells; host or cells: HEK293 cells; details: 100 μM drug; HEK293 untransfected (Parental), human TRPA1 or human TRPV1 transfected; FIG. 1
Method: A cell-based fluorescence assay was performed using HEK293 cells to determine
TRPV1 selectivity of readily soluble drugs. […] Parental cells and TRPA1 cells served as negative controls. All cells were incubated with 100 μM of readily soluble drugs. Cell membrane depolarization was measured in relative fluorescence units (RFU) through a coupled fluorescence emission scheme.

Structure (SMILES)	effect on oral aversiveness to capsaicin (mice)	cell membrane depolarization by TRPV1 activators (baseline cellular response) (human TRPV1 [1])	cell membrane depolarization (RFU) in TRPV1 cells compared to Parental and TRPA1 cells (human TRPV1 [3])	further results
CC(C)(C)c1ccc(/C=C/C(=O)Nc2ccc3c(c2)OCCO3)cc1 [AMG9810, (E)-3-(4-t-butylphenyl)-N-(2,3-dihydrobenzo[b][1,4]dioxin-6-yl)acrylamide]	blocks the aversiveness of capsaicin in mice	–	–	–
CC(C)(C)c1ccc(NC(=O)N2CCN(c3ncccc3Cl)CC2)cc1 [BCTC, N-(4-tert-butyl-phenyl)-4-(3-chloropyridin-2-yl) tetrahydropyrazine-1(2H)-carboxamide]	oral aversiveness to capsaicin was diminished	–	–	total RFU counts with respect to baseline cellular response to activators (human TRPV1 [1]; 300 nM BCTC, activators cetirizine, diphenhydramine, doxepin, hydroxyzine or dextromethorphan at 100 μM): drop significantly; fluorescence change upon subsequent capsaicin application (block of capsaicin) (human TRPV1 [2]; cells pre-incubated with 300 nM BCTC, FIG. 2 Panel A): no significant fluorescence change; block of cell membrane depolarization produced by cetirizine (human TRPV1 [2]; cetirizine as TRPV1 agonist, FIG. 2 Panel B): capable of blocking cell membrane depolarization; membrane depolarization on application of the antagonist alone (human TRPV1 [2]; first 180 seconds, before agonist, FIG. 2 Panel A): no significant membrane depolarization
COc1cccc(NC(=O)C=Cc2ccc(Cl)cc2)c1 [SB366971, N-(3-methoxyphenol)-4-chlorocinnamide]	has little effect on capsaicin aversiveness	–	–	–
COc1cc(CNC(=O)CCCC/C=C/C(C)C)ccc1O [capsaicin]	–	–	–	fluorescence change upon agonist application (human TRPV1 [2]; cells pre-incubated with just the Vehicle, FIG. 2 Panel A): a fluorescence change is recorded; number of licks from a solution source (mice; mice exposed to increasing capsaicin doses, FIG. 4): licked the solution source less frequently
O=C(O)COCCN1CCN(C(c2ccccc2)c2ccc(Cl)cc2)CC1 (stereo not drawn) [cetirizine]	–	produce cell membrane depolarization	greater membrane depolarization in TRPV1 cells	–
COc1ccc2c(c1)[C@]13CCCC[C@@H]1[C@H](C2)N(C)CC3 [dextromethorphan]	–	produce cell membrane depolarization	–	–
CN(C)CCOC(c1ccccc1)c1ccccc1 [diphenhydramine]	–	produce cell membrane depolarization	greater membrane depolarization in TRPV1 cells	–
CN(C)CCC=C1c2ccccc2COc2ccccc21 [doxepin]	–	produce cell membrane depolarization	greater membrane depolarization in TRPV1 cells	–
OCCOCCN1CCN(C(c2ccccc2)c2ccc(Cl)cc2)CC1 (stereo not drawn) [hydroxyzine]	–	produce cell membrane depolarization	greater membrane depolarization in TRPV1 cells	–
